Results: patent publication US10188693B2, “Methods for treatment of atherosclerosis” (Stealth BioTherapeutics Corp, priority 2012, dated 2019)
Where “and” joins values, the source holds several entries; their conditions need not be identical. Equal values may be shown once. Entries after “also recorded” stand apart in the source; their conditions may differ.

Tests used:
Type in all cases: in vivo
[1] = system: Apoprotein E deficient mice; assay: En face analysis of atherosclerotic lesions of the thoracic aorta (Sudan IV, % of aortic surface covered by lipid); settings: 12 weeks
Excerpt: (§1) Apoprotein E deficient mice (Jackson Laboratories, 600 Main Street, Bar Harbor, Me.) were used in this study. The mice were male, 7-8 weeks of age, and between 18-20 g in weight. An initial total cholesterol measurement was made on 30 mice, and the mice were grouped into two groups of 15 to match the total cholesterol measurements. Both groups were fed a “western diet” (40 kcal % butterfat, 0.15% [wt/wt] cholesterol, Harlan Teklad diet TD-88137). Starting at t=0, the control group of 15 mice received vehicle only (phosphate buffered saline at pH 7.4), while the test group of 15 mice received aromatic-cationic peptide reconstituted in phosphate buffered saline. Body weights of the mice were recorded weekly, and mortality checks were performed daily.
(§2) The aromatic-cationic peptide D-Arg-2′6′-Dmt-Lys-Phe-NH2 (sterile lyophilized powder, reconstituted in phosphate buffered saline) was tested. For the 12-week study, test mice received a single, daily dose of the peptide, subcutaneously at 1 mg/kg. Control mice received a single daily dose of vehicle.
(§3) Histopathology/Histomorphometery: Following the 12 week treatment, mice were euthanized within 48 hours after the last dose by CO2 asphyxiation and the vascular tree was perfused with 5 mL of phosphate buffered saline (pH 7.4). The aorta and aortic sinus were removed for examination. Thoracic aorta were isolated, trimmed of fat, and fixed in formalin for 48-72 hours before analysis. For en face analysis, aortas were laid out and pinned on black matrix for photography, and stained with Sudan IV. Vessels were imaged for surface involvement using a Nikon computerized image analysis system and the percent of the aortic surface area covered by lipid was calculated. Two determinations were done for each image (Quan 1 and Quan 2), and the average was computed. The data were then computed by group and statistically analyzed. Following staining and morphometric analysis, total lipids were extracted from the aortas using the Bligh-Dyer method. WAKO Diagnostics kits (WAKO Diagnostics, Inc., 1600 Bellwood Road Richmond, Va. 23237-1326) were then used to evaluate total cholesterol, free cholesterol, and cholesterol ester. Cholesterol leves were quantitate nad expressed relative to protein levels. Values are expressed as μg lipid per mg protein (see e.g., FIG. 1).

[2] = system: Apoprotein E deficient mice; assay: Total lesion area in aortic root 300 μm across aortic valve (aortic sinus cryosections, lipid staining); parameters: Area, total lesion area in aortic root / Area, total lesion area in aortic root, AVE: unit not given here; settings: 12 weeks
Excerpt: as §1
The aromatic-cationic peptide D-Arg-2′6′-Dmt-Lys-Phe-NH2 (sterile lyophilized powder, reconstituted in phosphate buffered saline) was tested. […]
For the aortic sinus, the heart and approximately 5 mm of the ascending aorta was cut from the remainder of the aorta. […] The sinus was imaged at 5 step levels in the region of interest, i.e., the aortic root, for a total distance of 300 μm and the lipid-staining areas and measured (total cross sectional area) using a Nikon computerized image analysis system. The data were then computed by group and statistically analyzed.

[3] = system: Apoprotein E deficient mice; assay: Thoracic aorta lipids (Bligh-Dyer extraction, WAKO kits; TC, FC, CE per mg protein); settings: 12 weeks
Excerpt: as §1, §2, §3

[4] = system: Apoprotein E deficient mice; assay: Plasma lipoprotein cholesterol by gel electrophoresis (Spife; HDL-C, LDL-C, VLDL-C); settings: for HDL-C / LDL-C / VLDL-C: plasma, Spife (electrophoresis)
Excerpt: as §1, §2
Experimental Protocol/Data Collection. Blood was collected every four weeks (orbital plexis) under isoflurane anesthesia (3%) and blood lipids were determined. Plasma lipid analysis was conducted for both groups at t=0, 4, […], 8, and 12 weeks. Plasma lipid analysis using an autoanalyzer included total cholesterol (TC), triglycerides (Trigs), phospholipids (PL), free cholesterol (FC), and cholesterol ester (CE, by calculation). Gel electrophoresis was used to measure levels of high-density lipoprotein cholesterol (HDL-C), low-density lipoprotein cholesterol (LDL-C), and very low-density lipoprotein cholesterol (VLDL-C).

[5] = individual mouse, 1 mg/kg subcutaneously daily, western diet, 1 mg/kg
[6] = treated versus vehicle, listed as aromatic-cationic peptide
[7] = group average, 1 mg/kg subcutaneously daily
[8] = individual mouse, 1 mg/kg subcutaneously daily, μg lipid per mg protein, listed as Peptide, 1 mg/kg
[9] = Week 0 (t=0, start of dosing), individual mouse of test group
[10] = Week 0, group average of test group
[11] = at 4, 8 and 12 week time points, versus vehicle
[12] = week 4, individual test mouse (sample #16-30), listed as aromatic-cationic peptide
[13] = week 8, individual test mouse (sample #16-30), listed as aromatic-cationic peptide
[14] = week 12, AVE of 15 test animals
[15] = week 12, individual test mouse (sample #16-30), listed as aromatic-cationic peptide

D-Arg-2′6′-Dmt-Lys-Phe-NH2
Ave (average % of the surface of the aortas showing lesions) ([1]; group average of 15 test mice, 1 mg/kg subcutaneously daily): 5.328% | Ave. % of Lesion ([1]; individual mouse, average of Quan 1 and Quan 2, 1 mg/kg subcutaneously daily, 1 mg/kg): 2.615% and 0.892% and 9.027% and 3.019% and 7.009% and 4.833% and 1.996% and 1.205% and 9.948% and 2.763% and 6.814% and 4.734% and 0.834% and 11.239% and 12.990% | Quan 1 (first determination of % of the aortic surface covered by lipid) [1, 5]: 2.562% and 0.914% and 8.769% and 2.832% and 7.137% and 5.198% and 2.128% and 1.388% and 10.000% and 2.990% and 7.091% and 4.700% and 0.775% and 11.589% and 13.857% | Quan 2 (second determination of % of the aortic surface covered by lipid) [1, 5]: 2.667% and 0.870% and 9.284% and 3.205% and 6.881% and 4.468% and 1.863% and 1.021% and 9.895% and 2.536% and 6.536% and 4.768% and 0.892% and 10.888% and 12.122% | atherosclerotic lesions in the aorta (% lesion area), in words [1, 6]: reduces; also recorded: lower | Area, total lesion area in aortic root, AVE ([2]; group average, 300 μm across aortic valve, 1 mg/kg subcutaneously daily): 282.72 | total (mean) lesion area in aortic root, in words [2, 6]: reduces; also recorded: lower | CE (cholesterol ester), thoracic aorta, AVE [3, 7]: 14.6 µg/mg | FC (free cholesterol), thoracic aorta, AVE [3, 7]: 5.7 µg/mg | TC (total cholesterol), thoracic aorta, AVE [3, 7]: 20.4 µg/mg | CE (cholesterol ester), thoracic aorta [3, 8]: 13.8 μg/mg and 2.7 μg/mg and 30.3 μg/mg and 14.7 μg/mg and 30.7 μg/mg and 14.1 μg/mg and 4.6 μg/mg (2×) and 5.6 μg/mg (2×) and 28.5 μg/mg and 21.3 μg/mg and 18.6 μg/mg and 11.4 μg/mg and 13.0 μg/mg | FC (free cholesterol), thoracic aorta [3, 8]: 7.6 μg/mg (2×) and 4.0 μg/mg and 5.1 μg/mg and 3.0 μg/mg (2×) and 8.1 μg/mg and 2.7 μg/mg and 3.5 μg/mg and 14.6 μg/mg and 6.6 μg/mg and 3.8 μg/mg and 3.6 μg/mg and 3.3 μg/mg and 9.5 μg/mg | TC (total cholesterol), thoracic aorta [3, 8]: 21.4 µg/mg and 6.7 µg/mg and 35.4 µg/mg and 17.7 µg/mg and 38.8 µg/mg and 16.8 µg/mg and 8.1 µg/mg and 20.1 µg/mg and 35.1 µg/mg and 9.4 µg/mg and 24.9 µg/mg and 21.7 µg/mg and 7.9 µg/mg and 19.0 µg/mg and 22.5 µg/mg | cholesterol esters in the thoracic aorta, in words [3, 6]: lower | free cholesterol in the thoracic aorta, in words [3, 6]: lower | total cholesterol in the thoracic aorta, in words [3, 6]: lower | HDL-C, plasma [4, 9]: 19 mg/dL and 34 mg/dL and 32 mg/dL and 37 mg/dL and 35 mg/dL and 21 mg/dL and 38 mg/dL and 41 mg/dL and 6 mg/dL and 31 mg/dL and 26 mg/dL and 39 mg/dL and 22 mg/dL and 29 mg/dL and 8 mg/dL | LDL-C, plasma [4, 9]: 258 mg/dL and 260 mg/dL and 307 mg/dL and 245 mg/dL and 268 mg/dL and 295 mg/dL and 304 mg/dL and 474 mg/dL and 287 mg/dL and 352 mg/dL and 380 mg/dL and 481 mg/dL and 410 mg/dL and 432 mg/dL and 773 mg/dL | VLDL-C, plasma [4, 9]: 25 mg/dL (2×) and 23 mg/dL and 37 mg/dL and 20 mg/dL (2×) and 19 mg/dL and 27 mg/dL and 36 mg/dL and 15 mg/dL and 26 mg/dL and 31 mg/dL and 24 mg/dL and 28 mg/dL and 29 mg/dL | HDL-C, plasma, AVE [4, 10]: 28 mg/dL | LDL-C, plasma, AVE [4, 10]: 368 mg/dL | VLDL-C, plasma, AVE [4, 10]: 26 mg/dL | plasma LDL-C, in words [4, 11]: reduces | plasma VLDL-C, in words [4, 11]: reduces | HDL-C ([4]; week 4, AVE of 15 test animals): 25 mg/dL | LDL-C ([4]; week 4, AVE of 15 test animals): 940 mg/dL | VLDL-C ([4]; week 4, AVE of 15 test animals): 33 mg/dL | HDL-C [4, 12]: 18 mg/dL and 20 mg/dL (3×) and 0 mg/dL and 13 mg/dL and 7 mg/dL and 23 mg/dL and 32 mg/dL (3×) and 15 mg/dL and 45 mg/dL and 44 mg/dL and 49 mg/dL | LDL-C [4, 12]: 745 mg/dL and 866 mg/dL and 918 mg/dL and 1120 mg/dL and 982 mg/dL and 648 mg/dL and 893 mg/dL and 975 mg/dL and 770 mg/dL and 766 mg/dL and 966 mg/dL and 1147 mg/dL and 874 mg/dL and 1171 mg/dL and 1254 mg/dL | VLDL-C [4, 12]: 35 mg/dL (2×) and 37 mg/dL (2×) and 19 mg/dL and 44 mg/dL (2×) and 18 mg/dL and 23 mg/dL and 39 mg/dL and 41 mg/dL and 28 mg/dL and 31 mg/dL and 30 mg/dL and 32 mg/dL | HDL-C ([4]; week 8, AVE of 15 test animals): 32 mg/dL | LDL-C ([4]; week 8, AVE of 15 test animals): 1166 mg/dL | VLDL-C ([4]; week 8, AVE of 15 test animals): 84 mg/dL | HDL-C [4, 13]: 42 mg/dL and 34 mg/dL and 27 mg/dL and 33 mg/dL and 19 mg/dL (2×) and 8 mg/dL and 45 mg/dL and 16 mg/dL and 32 mg/dL and 41 mg/dL (2×) and 25 mg/dL and 43 mg/dL and 57 mg/dL | LDL-C [4, 13]: 1119 mg/dL and 897 mg/dL and 1392 mg/dL and 1071 mg/dL and 1415 mg/dL and 901 mg/dL and 875 mg/dL and 1378 mg/dL and 922 mg/dL and 856 mg/dL and 1317 mg/dL and 1320 mg/dL and 1025 mg/dL and 1382 mg/dL and 1621 mg/dL | VLDL-C [4, 13]: 101 mg/dL and 73 mg/dL and 86 mg/dL and 79 mg/dL (2×) and 112 mg/dL and 34 mg/dL and 88 mg/dL and 69 mg/dL and 59 mg/dL and 93 mg/dL and 74 mg/dL and 80 mg/dL and 109 mg/dL and 119 mg/dL | HDL-C [4, 14]: 21 mg/dL | LDL-C [4, 14]: 939 mg/dL | VLDL-C [4, 14]: 44 mg/dL | HDL-C [4, 15]: 38 mg/dL and 20 mg/dL (2×) and 10 mg/dL and 41 mg/dL and 21 mg/dL and 5 mg/dL and 31 mg/dL (2×) and 2 mg/dL (2×) and 40 mg/dL and 28 mg/dL and 1 mg/dL and 23 mg/dL | LDL-C [4, 15]: 821 mg/dL and 485 mg/dL and 854 mg/dL and 852 mg/dL and 1328 mg/dL and 693 mg/dL and 611 mg/dL and 692 mg/dL and 962 mg/dL and 896 mg/dL and 1275 mg/dL and 1218 mg/dL and 505 mg/dL and 1203 mg/dL and 1688 mg/dL | VLDL-C [4, 15]: 39 mg/dL and 35 mg/dL and 21 mg/dL (2×) and 43 mg/dL and 71 mg/dL and 32 mg/dL and 33 mg/dL and 26 mg/dL and 63 mg/dL and 76 mg/dL and 36 mg/dL and 30 mg/dL and 83 mg/dL and 46 mg/dL
